# According to ChEMBL document CHEMBL1143336, “Structure-activity relationship study on polyglutamine binding peptide QBP1” (Bioorg Med Chem, 2009):
# Legend:
# [1] = Inhibition of thioredoxin-conjugated PolyQ-62 protein aggregation expressed in Escherichia coli DH5alpha at 20 uM relative to control
# [2] = Inhibition of thioredoxin-conjugated PolyQ-62 protein aggregation expressed in Escherichia coli DH5alpha
compound,measurement,setting,value
CC[C@H](C)[C@H](NC(=O)CNC(=O)[C@@H]1CCCN1C(=O)[C@H](Cc1c[nH]c2ccccc12)NC(=O)[C@H](Cc1c[nH]c2ccccc12)NC(=O)[C@H](CCCCN)NC(=O)[C@H](Cc1c[nH]c2ccccc12)NC(=O)[C@@H](CC(N)=O)NC(=O)[C@H](CO)NC(C)=O)C(=O)N[C@@H](Cc1ccccc1)C(=O)N[C@@H](CC(=O)O)C(N)=O,inhibition,[1],80.7%
same,IC50,[2],4.5 µM
CC[C@H](C)[C@H](NC(=O)CNC(=O)[C@@H]1CCCN1C(=O)[C@H](Cc1c[nH]c2ccccc12)NC(=O)[C@H](Cc1c[nH]c2ccccc12)NC(=O)[C@H](CCCCN)NC(=O)[C@H](Cc1c[nH]c2ccccc12)NC(=O)[C@H](CC(N)=O)NC(=O)[C@H](CO)NC(C)=O)C(=O)N[C@@H](Cc1ccccc1)C(=O)N[C@H](CC(=O)O)C(N)=O,inhibition,[1],77.2%
same,IC50,[2],5 µM
CC[C@H](C)[C@H](NC(=O)CNC(=O)[C@@H]1CCCN1C(=O)[C@H](Cc1c[nH]c2ccccc12)NC(=O)[C@H](Cc1c[nH]c2ccccc12)NC(=O)[C@H](CCCCN)NC(=O)[C@H](Cc1c[nH]c2ccccc12)NC(=O)[C@H](CC(N)=O)NC(=O)[C@H](CO)NC(C)=O)C(=O)N[C@H](Cc1ccccc1)C(=O)N[C@@H](CC(=O)O)C(N)=O,inhibition,[1],65.3%
same,IC50,[2],> 20 µM
CC[C@H](C)[C@H](NC(=O)CNC(=O)[C@@H]1CCCN1C(=O)[C@H](Cc1c[nH]c2ccccc12)NC(=O)[C@H](Cc1c[nH]c2ccccc12)NC(=O)[C@H](CCCCN)NC(=O)[C@H](Cc1c[nH]c2ccccc12)NC(=O)[C@H](CC(N)=O)NC(=O)[C@H](CO)NC(C)=O)C(=O)N[C@@H](Cc1ccccc1)C(=O)N[C@@H](CC(=O)O)C(N)=O,inhibition,[1],76.7%
same,IC50,[2],5 µM
CC[C@H](C)[C@H](NC(=O)[C@H](C)NC(=O)[C@@H]1CCCN1C(=O)[C@H](Cc1c[nH]c2ccccc12)NC(=O)[C@H](Cc1c[nH]c2ccccc12)NC(=O)[C@H](CCCCN)NC(=O)[C@H](Cc1c[nH]c2ccccc12)NC(=O)[C@H](CC(N)=O)NC(=O)[C@H](CO)NC(C)=O)C(=O)N[C@@H](Cc1ccccc1)C(=O)N[C@@H](CC(=O)O)C(N)=O,inhibition,[1],64.9%
same,IC50,[2],11.5 µM
CC[C@H](C)[C@H](NC(=O)CNC(=O)[C@@H]1CCCN1C(=O)[C@H](Cc1c[nH]c2ccccc12)NC(=O)[C@H](Cc1c[nH]c2ccccc12)NC(=O)[C@H](CCCCN)NC(=O)[C@H](Cc1c[nH]c2ccccc12)NC(=O)[C@H](CC(N)=O)NC(=O)[C@@H](CO)NC(C)=O)C(=O)N[C@@H](Cc1ccccc1)C(=O)N[C@@H](CC(=O)O)C(N)=O,inhibition,[1],83.2%
same,IC50,[2],4.4 µM
CC[C@H](C)[C@@H](NC(=O)CNC(=O)[C@@H]1CCCN1C(=O)[C@H](Cc1c[nH]c2ccccc12)NC(=O)[C@H](Cc1c[nH]c2ccccc12)NC(=O)[C@H](CCCCN)NC(=O)[C@H](Cc1c[nH]c2ccccc12)NC(=O)[C@H](CC(N)=O)NC(=O)[C@H](CO)NC(C)=O)C(=O)N[C@@H](Cc1ccccc1)C(=O)N[C@@H](CC(=O)O)C(N)=O,inhibition,[1],33.2%
CC[C@H](C)[C@H](NC(=O)CNC(=O)[C@@H]1CCCN1C(=O)[C@@H](Cc1c[nH]c2ccccc12)NC(=O)[C@H](Cc1c[nH]c2ccccc12)NC(=O)[C@H](CCCCN)NC(=O)[C@H](Cc1c[nH]c2ccccc12)NC(=O)[C@H](CC(N)=O)NC(=O)[C@H](CO)NC(C)=O)C(=O)N[C@@H](Cc1ccccc1)C(=O)N[C@@H](CC(=O)O)C(N)=O,inhibition,[1],8.4%
CC[C@H](C)[C@H](NC(=O)CNC(=O)[C@@H]1CCCN1C(=O)[C@H](Cc1c[nH]c2ccccc12)NC(=O)[C@@H](Cc1c[nH]c2ccccc12)NC(=O)[C@H](CCCCN)NC(=O)[C@H](Cc1c[nH]c2ccccc12)NC(=O)[C@H](CC(N)=O)NC(=O)[C@H](CO)NC(C)=O)C(=O)N[C@@H](Cc1ccccc1)C(=O)N[C@@H](CC(=O)O)C(N)=O,inhibition,[1],6.4%
CC[C@H](C)[C@H](NC(=O)CNC(=O)[C@@H]1CCCN1C(=O)[C@H](Cc1c[nH]c2ccccc12)NC(=O)[C@H](Cc1c[nH]c2ccccc12)NC(=O)[C@@H](CCCCN)NC(=O)[C@H](Cc1c[nH]c2ccccc12)NC(=O)[C@H](CC(N)=O)NC(=O)[C@H](CO)NC(C)=O)C(=O)N[C@@H](Cc1ccccc1)C(=O)N[C@@H](CC(=O)O)C(N)=O,inhibition,[1],9.9%
CC[C@H](C)[C@H](NC(=O)CNC(=O)[C@@H]1CCCN1C(=O)[C@H](Cc1c[nH]c2ccccc12)NC(=O)[C@H](Cc1c[nH]c2ccccc12)NC(=O)[C@H](CCCCN)NC(=O)[C@@H](Cc1c[nH]c2ccccc12)NC(=O)[C@H](CC(N)=O)NC(=O)[C@H](CO)NC(C)=O)C(=O)N[C@@H](Cc1ccccc1)C(=O)N[C@@H](CC(=O)O)C(N)=O,inhibition,[1],41.1%
CC[C@H](C)[C@H](NC(=O)CNC(=O)[C@H]1CCCN1C(=O)[C@H](Cc1c[nH]c2ccccc12)NC(=O)[C@H](Cc1c[nH]c2ccccc12)NC(=O)[C@H](CCCCN)NC(=O)[C@H](Cc1c[nH]c2ccccc12)NC(=O)[C@H](CC(N)=O)NC(=O)[C@H](CO)NC(C)=O)C(=O)N[C@@H](Cc1ccccc1)C(=O)N[C@@H](CC(=O)O)C(N)=O,inhibition,[1],25.7%
CC[C@H](C)[C@H](NC(=O)[C@@H](C)NC(=O)[C@@H]1CCCN1C(=O)[C@H](Cc1c[nH]c2ccccc12)NC(=O)[C@H](Cc1c[nH]c2ccccc12)NC(=O)[C@H](CCCCN)NC(=O)[C@H](Cc1c[nH]c2ccccc12)NC(=O)[C@H](CC(N)=O)NC(=O)[C@H](CO)NC(C)=O)C(=O)N[C@@H](Cc1ccccc1)C(=O)N[C@@H](CC(=O)O)C(N)=O,inhibition,[1],16.3%
Ac-ANWKWWPGIFD-NH2,inhibition,[1],78.2%
same,IC50,[2],6.3 µM
Ac-KWWPGIFD-NH2,inhibition,[1],5.4%
Ac-NWKWWPGIFD-NH2,inhibition,[1],78.2%
same,IC50,[2],5 µM
Ac-SAWKWWPGIFD-NH2,inhibition,[1],82.2%
same,IC50,[2],4.3 µM
Ac-SNAKWWPGIFD-NH2,inhibition,[1],-4%
Ac-SNWAWWPGIFD-NH2,inhibition,[1],78.2%
same,IC50,[2],8.5 µM
Ac-SNWKAWPGIFD-NH2,inhibition,[1],-5.4%
Ac-SNWKWWAGIFD-NH2,inhibition,[1],58.9%
same,IC50,[2],10 µM
Ac-SNWKWWP-NH2,inhibition,[1],11.4%
Ac-SNWKWWPG-NH2,inhibition,[1],5.9%
Ac-SNWKWWPGAFD-NH2,inhibition,[1],9.9%
Ac-SNWKWWPGI-NH2,inhibition,[1],7.4%
Ac-SNWKWWPGIAD-NH2,inhibition,[1],11.4%
Ac-SNWKWWPGIF-NH2,inhibition,[1],57.4%
same,IC50,[2],14.6 µM
Ac-SNWKWWPGIFA-NH2,inhibition,[1],67.8%
same,IC50,[2],15.6 µM
Ac-WKWWPGIF-NH2,inhibition,[1],85.6%
same,IC50,[2],3.6 µM
Ac-WKWWPGIFD-NH2,inhibition,[1],81.2%
same,IC50,[2],2.9 µM
Ac-WWPGIFD-NH2,inhibition,[1],5%
